Laboratory results taken from US5594157A, “Process for making taxol derivatives” (Abbott Laboratories, priority 1995, dated 1997).
In brackets after ≈: the same amount, converted by molar mass.

Columns and labels:
A549 = assay: In vitro tumor cell cytotoxicity, three day MTT microtiter assay (A549); type: cell-based, human; settings: Homo sapiens, A549, 72 h, read-out: In vitro tumor cell cytotoxicity (IC50)
Protocol: (§1) A three day microtiter assay was used to measure the growth inhibition of cultured cells exposed to a range of drug concentrations. Metabolic activity was measured by the cells' ability to reduce the tetrazolium dye, MTT (3-(4,5-dimethylthiazol-2-yl-2,5-diphenyltetrazolium bromide) to a quantifiable colored end product, which absorbs at 570 nm in the visible spectrum. Surviving cells reduce the MTT dye.
(§2) Test compounds were dissolved in dimethyl sulfoxide (DMSO) and diluted, first with Earle's Balanced Salt Solution, followed by culture medium, to twice the highest concentration of compound to be tested. From this concentrated stock, two-fold serial dilutions were prepared in 96-well microtiter trays, each well containing twice the desired final concentration of compound. Each concentration was tested in triplicate and compared to triplicate drug-free controls.
(§3) The cells were grown in the same medium used for diluting the compounds and then harvested using trypsinization. This involved removing the medium by aspiration; rinsing the cell monolayer twice with Earle's Balanced Salt Solution; adding trypsin (0.05%)/EDTA (0.53 mM; for each 25 cm^2, approximately 0.2 mL), tilting to cover the monolayer, and then withdrawing trypsin leaving only a thin film of solution; incubating at room temperature until the cell monolayers detached (as determined by visual and/or microscopic observation); adding medium contaiing fetal calf serum to stop the action of the trypsin and resuspend the cells; triturating to aid dissociation of cell clumps; and determining the number of cells per milliliter by electronic cell counter (e.g. Coulter Counter) or by mixing an aliquot of cell suspension with Trypan Blue (0.4% in normal saline) and counting the viable cells using a hemacytometer.
(§4) After harvesting and determination of viable cell counts, cell density was adjusted to 25,000 cells/mL. Inoculum (0.1 mL) containing the cells was then added to each well for a final concentration of 2,500 cells per well. Addition of the inoculum diluted the test compounds to the desired final concentration.
(§5) Microtiter trays were then incubated for three days at 36° C. in a humidified atmosphere containing 5% carbon dioxide. After three days, 20 microtiters of 5 mg/mL MTT in phosphate-buffered saline solution were added to each well. Trays were returned to the incubator for two to four hours to allow the surviving cells to reduce the dye. Medium and unreduced dye were removed by aspiration. DMSO was added to each well to dissolve the water-insoluble, colored end product of the dye reduction so that it could be measured spectrophotometrically at 570 nm.

P-388 = assay: In vitro tumor cell cytotoxicity, three day MTT microtiter assay (P-388); type: cell-based, mouse; settings: Mus musculus, P388, 72 h, read-out: In vitro tumor cell cytotoxicity (IC50)
Protocol: as §1, §2, §3, §4, §5

[1] = tested on: advanced breast and ovarian cancers; settings: cited from earlier work
other tumor types = settings: preliminary investigations; cited from earlier work

SMILES | IC50 (A549) | IC50 (P-388) | effectiveness in clinical trials [1] | activity against other tumor types (other tumor types)
CC(=O)O[C@@H]1C2=C(C)[C@@H](OC(=O)[C@H](O)[C@@H](NC(=O)NC(C)(C)C)c3ccccc3)C[C@@](O)([C@@H](OC(=O)c3ccccc3)[C@@H]3[C@]4(OC(C)=O)CO[C@@H]4C[C@H](O)[C@@]3(C)[C@H]1O)C2(C)C [Example 30, N-Debenzoyl-N-t-butylcarbamyl-9-dihydrotaxol] | 0.014 µg/mL (≈ 0.0165 µM) | 0.017 µg/mL (≈ 0.02 µM) |  | 
CC(=O)O[C@H]1C(=O)[C@@]2(C)[C@H]([C@H](OC(=O)c3ccccc3)[C@]3(O)C[C@H](OC(=O)[C@H](O)[C@@H](NC(=O)c4ccccc4)c4ccccc4)C(C)=C1C3(C)C)[C@]1(OC(C)=O)CO[C@@H]1C[C@@H]2O [Taxol] |  |  | effective against advanced breast and ovarian cancers in clinical trials | promising activity against a number of other tumor types
